Literature values, collected in US11033606B2, “Composition comprising aflibercept, folinic acid, 5-fluorouracil (5-FU) and irinotecan (FOLFIRI)” (SANOFI, priority 2011, dated 2021).

Legend:
[1] = system: non-small cell lung cancer (NSCLC); conditions: aflibercept added to docetaxel vs docetaxel plus placebo, second-line NSCLC
[2] = system: previously treated patients with metastatic colorectal cancer; conditions: pre-treated patients with MCRC

## aflibercept: fusion protein: VEGFR1 D2 Ig domain fused to VEGFR2 D3 Ig domain, fused to IgG1 Fc domain (SEQ ID No 1)
[1]
  Primary endpoint of improvement in overall survival: did not meet the pre-specified criteria
[2]
  Tolerability: well tolerated
